Data: US9723989B2, “Ex vivo motility contrast imaging” (Purdue Research Foundation, priority 2015, dated 2017)

Test system: DLD-1 tumor spheroid
Test: Biodynamic imaging / tissue dynamics spectroscopy, combined (Het, Div) metric of drug response
Assay type: cell-based
Settings: per-pixel TDS drug-response spectrograms, FIG. 14, FIG. 15
Description: There are two light paths in the optical coherence imaging system. The laser source provides light which is intensity-controlled by the neutral density filter and size-controlled by lenses L1 and L2. Light is communicated through a half-wave plate, and is then communicated through a polarizing beam splitter (PBS1) which generates an object path and a reference path. Lenses L3 and L4 expand the reference beam, and lens L5 performs the Fourier transform of the back-scattered dynamic speckle from a target. The wave plates (half-wave plate and quarter-wave plate) and the PBS2 ensure most of the laser power is in the object beam, and most of the back-scattered signal reaches the charge coupled device (CCD). The target is often a multicellular tumor spheroid, but can be any living biological specimen that is sufficiently immobilized, such as living tissue obtained by surgical biopsy or by needle biopsy. In TDS experiments, the images are captured at a fixed-depth (usually the mid-plane of the tumor tissue). For example, if the tumor spheroid has a diameter of 500 microns, the images captured by the CCD camera are the Fourier Domain back-scattered dynamic speckle holograms at the fixed depth of 250 microns in the tumor spheroid. Conversely, sections from multiple depths can be acquired to obtain stacks of images that are reconstructed into three-dimensional optical coherence volumetric images. In each 4 min interval, 2 acquisition rates are applied. First 200 images are captured at 25 fps; then another 100 images are captured at 0.5 fps. Thus after combining the high frequency data and the low frequency data together, in each 4 min interval (each data set), the spectrum frequency range is from 0.005 Hz to 12.5 Hz across more than 3 orders of magnitude.
The high-frequency acquisition generates a series of image frames in which the speckle varies in intensity from frame to frame. These intensities are analyzed using a Fourier transform to generate a high-frequency spectrum. The low-frequency acquisition similarly generates a low-frequency spectrum. These high- and low-frequency spectra overlap over a frequency range. A stitching algorithm is performed that combined the high- and low-frequency spectra into a single broad-band spectrum. This spectrum relates to the 300 images and constitutes one time-point spectrum. The process is repeated to generate a series of time-point spectra.
The outcome of the heterogeneity sampling can be encapsulated in a small number of metrics that are communicated to the operator. […]
An example of spatial non-uniformity is shown in FIG. 14 for the Raf inhibitor drug Sorafenib applied to a DLD-1 tumor spheroid. […] These spectrograms were analyzed for intensity and for spectral content. […]

| SMILES | Heterogeneity (Het) - how spatially uniform is the response | Diversity (Div) - phenotypic diversity, difference in spectrogram features / spectral content |
| --- | --- | --- |
| CNC(=O)c1cc(Oc2ccc(NC(=O)Nc3ccc(Cl)c(C(F)(F)F)c3)cc2)ccn1 [Sorafenib] | 0.83 | – |
| CC(=O)O[C@H]1C(=O)[C@@]2(C)[C@H]([C@H](OC(=O)c3ccccc3)[C@]3(O)C[C@H](OC(=O)[C@H](O)[C@@H](NC(=O)c4ccccc4)c4ccccc4)C(C)=C1C3(C)C)[C@]1(OC(C)=O)CO[C@@H]1C[C@@H]2O [taxol] | high spatial heterogeneity | spectral content appears the same for core and shell |
| CC(C)[C@@H]1NC(=O)[C@H](C)OC(=O)[C@@H](C(C)C)NC(=O)[C@@H](C(C)C)OC(=O)[C@H](C(C)C)NC(=O)[C@H](C)OC(=O)[C@@H](C(C)C)NC(=O)[C@@H](C(C)C)OC(=O)[C@H](C(C)C)NC(=O)[C@H](C)OC(=O)[C@@H](C(C)C)NC(=O)[C@@H](C(C)C)OC1=O [valinomycin] | One of the most uniform | – |
